Measurements from the CheMixHub ionic liquid set.

Experiment: xn = mol fraction of the nth substance listed

CCCC[n+]1ccn(C)c1.[Br-] + Cc1ncc(CO)c(CO)c1O.Cl + O
viscosity [mPa·s], 100 kPa
Conditions	293.15 K	298.15 K	303.15 K	308.15 K	313.15 K
x2 = 0, x1 = 0.0009002	1.033	0.918	0.823	0.753	0.676
x2 = 0, x1 = 0.001799	1.057	0.938	0.841	0.757	0.689
x2 = 0, x1 = 0.002696	1.068	1.001	0.904	0.796	0.748
x2 = 0.0002693, x1 = 0.0008999	1.037	0.922	0.827	0.757	0.68
x2 = 0.0002812, x1 = 0.001798	1.062	0.943	0.846	0.762	0.694
x2 = 0.0002821, x1 = 0.002695	1.073	1.006	0.909	0.801	0.753
x2 = 0.0004585, x1 = 0.0008998	1.041	0.926	0.831	0.761	0.684
x2 = 0.0005547, x1 = 0.002694	1.078	1.011	0.914	0.806	0.758
x2 = 0.0005732, x1 = 0.001798	1.067	0.948	0.851	0.767	0.699
x2 = 0.0008147, x1 = 0.0008995	1.047	0.932	0.837	0.768	0.691
x2 = 0.0008302, x1 = 0.001797	1.072	0.953	0.856	0.772	0.704
x2 = 0.0008383, x1 = 0.002693	1.083	1.016	0.919	0.811	0.763
x2 = 0.001093, x1 = 0.0008992	1.052	0.937	0.842	0.774	0.696
x2 = 0.001142, x1 = 0.001797	1.078	0.959	0.861	0.777	0.709
x2 = 0.001151, x1 = 0.002693	1.089	1.022	0.925	0.816	0.768
x2 = 0.00136, x1 = 0.000899	1.058	0.943	0.848	0.78	0.703
x2 = 0.001373, x1 = 0.001796	1.082	0.963	0.865	0.781	0.713
x2 = 0.001399, x1 = 0.002692	1.094	1.027	0.929	0.82	0.772
x2 = 0.001637, x1 = 0.0008987	1.063	0.948	0.854	0.785	0.708
x2 = 0.001664, x1 = 0.002691	1.098	1.032	0.933	0.825	0.777
x2 = 0.001674, x1 = 0.001796	1.087	0.968	0.87	0.786	0.718

CS(C)=O + Cn1cc[n+](CCCN)c1.F[B-](F)(F)F
Conditions	viscosity [mPa·s]
328.15 K, 101 kPa, x2 = 0	1.249

CCCC[N+]1(C)CCCC1.FC(F)(F)C(F)(F)[P-](F)(F)(F)(C(F)(F)C(F)(F)F)C(F)(F)C(F)(F)F + FC(F)(F)c1ccccc1
101 kPa, x1 = 1
Conditions	electrical conductivity [S/m]	viscosity [mPa·s]
298.1 K	0.113	283
303 K	0.146	214
308.1 K	0.186	166.2
313 K	0.23	122.1
318.1 K	0.273	100.3
323 K	0.332	80.1

CCCC[n+]1ccn(C)c1.[Br-] + NC(N)=NCCC[C@H](N)C(=O)O + O
Conditions	viscosity [mPa·s]
313.15 K, 101.3 kPa, x2 = 0, x1 = 0.0007203	0.674

CCCC[n+]1ccn(C)c1.[Br-] + NC(N)=O + O
298.15 K, 100 kPa
Conditions	viscosity [mPa·s]
x2 = 0, x3 = 0.9487	2.21
x2 = 0.008492, x3 = 0.9402	2.29
x2 = 0.01695, x3 = 0.9318	2.29
x2 = 0.02496, x3 = 0.9237	2.28
x2 = 0.02678, x3 = 0.9219	2.36
x2 = 0.03322, x3 = 0.9155	2.36
x2 = 0.04109, x3 = 0.9076	2.41

CCCCCCCCCCCC[N+](C)(C)Cc1ccccc1.[Cl-] + NCC(=O)NCC(=O)O + O
electrical conductivity [S/m], 101 kPa
Conditions	293.15 K	298.15 K	303.15 K	308.15 K	313.15 K
x2 = 0.0008945, x1 = 0.0002797	0.0793	0.0896	0.0999	0.111	0.123
x2 = 0.0008945, x1 = 0.0003	0.0824	0.0938	0.105	0.117	0.129
x2 = 0.0008945, x1 = 0.0003225	0.086	0.0984	0.109	0.123	0.135
x2 = 0.0008945, x1 = 0.0003431	0.0893	0.102	0.115	0.128	0.14
x2 = 0.0008946, x1 = 0.0001787	0.0623	0.069	0.0771	0.086	0.0944
x2 = 0.0008946, x1 = 0.000206	0.0676	0.0752	0.0839	0.093	0.103
x2 = 0.0008946, x1 = 0.0002337	0.0721	0.081	0.09	0.0999	0.111
x2 = 0.0008946, x1 = 0.0002576	0.0759	0.0855	0.0949	0.106	0.118
x2 = 0.0008947, x1 = 6.107e-05	0.0231	0.0264	0.0294	0.0327	0.036
x2 = 0.0008947, x1 = 8.317e-05	0.0312	0.0352	0.0392	0.0433	0.0476
x2 = 0.0008947, x1 = 0.0001051	0.0388	0.0437	0.0485	0.0537	0.059
x2 = 0.0008947, x1 = 0.0001274	0.0473	0.0523	0.0589	0.0647	0.0718
x2 = 0.0008947, x1 = 0.000152	0.0562	0.0624	0.0692	0.0771	0.0851
x2 = 0.001798, x1 = 0.0001447	0.056	0.0627	0.0696	0.0768	0.0846
x2 = 0.001798, x1 = 0.0001707	0.063	0.0704	0.0781	0.0865	0.0956
x2 = 0.001798, x1 = 0.0001977	0.0685	0.0766	0.0852	0.0946	0.105
x2 = 0.001798, x1 = 0.0002221	0.0729	0.0816	0.091	0.101	0.113
x2 = 0.001798, x1 = 0.0002443	0.0767	0.0861	0.0963	0.107	0.12
x2 = 0.001798, x1 = 0.0002649	0.0802	0.0902	0.101	0.112	0.126
x2 = 0.001798, x1 = 0.000284	0.0835	0.094	0.105	0.118	0.131
x2 = 0.001798, x1 = 0.0003015	0.0864	0.0974	0.109	0.122	0.137
x2 = 0.001798, x1 = 0.000321	0.0898	0.101	0.114	0.127	0.142
x2 = 0.001799, x1 = 5.376e-05	0.0229	0.0259	0.029	0.0323	0.0357
x2 = 0.001799, x1 = 7.599e-05	0.0313	0.0352	0.0394	0.0437	0.0482
x2 = 0.001799, x1 = 9.786e-05	0.0395	0.0443	0.0494	0.0546	0.0601
x2 = 0.001799, x1 = 0.0001201	0.0476	0.0533	0.0593	0.0655	0.0721
